ChEMBL document CHEMBL1201862, “PubChem BioAssay data set” (2004)
Calls of active or inactive are those of the source.

Experiments:
[1] = target: T1, RNA-binding protein pos-1 (Caenorhabditis elegans, UniProt G5EF15); assay: inhibitors of POS-1/mex-3 RNA binding, dose response, biochemical, fluorescence polarization (AID 1964);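 also: purified POS-1 fused to maltose binding protein made in E. coli; potency of compounds blocking POS-1 binding to fluorescent RNA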
T1 sequence (G5EF15 whole entry): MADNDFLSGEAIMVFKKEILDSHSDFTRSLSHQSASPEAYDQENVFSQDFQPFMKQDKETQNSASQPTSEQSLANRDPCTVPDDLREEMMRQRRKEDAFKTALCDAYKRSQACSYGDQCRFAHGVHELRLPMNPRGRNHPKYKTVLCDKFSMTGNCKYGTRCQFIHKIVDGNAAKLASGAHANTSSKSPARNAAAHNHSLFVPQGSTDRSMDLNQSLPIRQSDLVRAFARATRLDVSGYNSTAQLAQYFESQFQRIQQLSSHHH

[2] = target: Glyceraldehyde-3-phosphate dehydrogenase (Homo sapiens, UniProt P04406)
Sequence of Glyceraldehyde-3-phosphate dehydrogenase (P04406 whole entry): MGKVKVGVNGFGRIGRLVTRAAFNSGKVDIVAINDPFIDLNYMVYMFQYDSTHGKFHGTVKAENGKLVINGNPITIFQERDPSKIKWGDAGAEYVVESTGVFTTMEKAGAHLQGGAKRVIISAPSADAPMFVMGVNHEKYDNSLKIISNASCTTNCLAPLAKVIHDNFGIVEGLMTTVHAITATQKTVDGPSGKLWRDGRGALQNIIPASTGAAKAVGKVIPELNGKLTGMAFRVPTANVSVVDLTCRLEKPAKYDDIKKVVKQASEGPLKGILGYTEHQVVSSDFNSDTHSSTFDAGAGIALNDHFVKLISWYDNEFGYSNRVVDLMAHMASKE

[3] = target: T2, Tyrosine-protein phosphatase non-receptor type 7 (Homo sapiens, UniProt P35236); assay type: functional
T2 sequence (P35236 whole entry): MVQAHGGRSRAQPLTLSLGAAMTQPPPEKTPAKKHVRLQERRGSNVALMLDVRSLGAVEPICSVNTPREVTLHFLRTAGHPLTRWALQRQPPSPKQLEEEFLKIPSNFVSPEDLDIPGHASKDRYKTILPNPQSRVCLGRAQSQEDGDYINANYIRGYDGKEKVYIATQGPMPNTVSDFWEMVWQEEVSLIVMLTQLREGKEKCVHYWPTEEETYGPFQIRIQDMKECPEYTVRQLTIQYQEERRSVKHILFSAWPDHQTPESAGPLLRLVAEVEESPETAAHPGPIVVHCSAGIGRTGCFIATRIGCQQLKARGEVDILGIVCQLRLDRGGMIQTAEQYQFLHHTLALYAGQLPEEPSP

[4] = target: Heat shock 70 kDa protein 1A (Homo sapiens, UniProt P0DMV8); assay: Hsp70 inhibitors, SAR follow-up, biochemical, fluorescence polarization (AID 1072)
Sequence of Heat shock 70 kDa protein 1A (P0DMV8 whole entry): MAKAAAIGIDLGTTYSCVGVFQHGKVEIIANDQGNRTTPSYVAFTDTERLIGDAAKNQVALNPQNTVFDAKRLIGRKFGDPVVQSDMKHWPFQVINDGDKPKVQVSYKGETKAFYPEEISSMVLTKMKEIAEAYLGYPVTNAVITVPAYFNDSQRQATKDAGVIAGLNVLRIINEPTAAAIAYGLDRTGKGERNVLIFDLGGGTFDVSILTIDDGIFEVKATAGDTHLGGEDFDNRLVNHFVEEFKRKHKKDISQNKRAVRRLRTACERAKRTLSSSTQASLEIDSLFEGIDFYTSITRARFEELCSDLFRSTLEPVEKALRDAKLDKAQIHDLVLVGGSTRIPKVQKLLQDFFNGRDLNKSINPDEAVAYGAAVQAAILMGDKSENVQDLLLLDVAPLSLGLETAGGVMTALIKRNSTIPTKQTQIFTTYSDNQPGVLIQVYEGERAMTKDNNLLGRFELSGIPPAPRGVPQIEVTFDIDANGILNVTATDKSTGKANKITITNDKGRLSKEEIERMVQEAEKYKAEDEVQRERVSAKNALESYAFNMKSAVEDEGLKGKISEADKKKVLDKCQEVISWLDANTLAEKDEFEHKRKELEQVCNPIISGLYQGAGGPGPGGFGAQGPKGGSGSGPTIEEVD

Cysteine protease ATG4B = target: T3, Cysteine protease ATG4B (Homo sapiens, UniProt Q9Y4P1); assay type: functional;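 also: Fluorescence-based dose-response confirmation assay measuring inhibition of ATG4B activity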
T3 sequence (Q9Y4P1 whole entry): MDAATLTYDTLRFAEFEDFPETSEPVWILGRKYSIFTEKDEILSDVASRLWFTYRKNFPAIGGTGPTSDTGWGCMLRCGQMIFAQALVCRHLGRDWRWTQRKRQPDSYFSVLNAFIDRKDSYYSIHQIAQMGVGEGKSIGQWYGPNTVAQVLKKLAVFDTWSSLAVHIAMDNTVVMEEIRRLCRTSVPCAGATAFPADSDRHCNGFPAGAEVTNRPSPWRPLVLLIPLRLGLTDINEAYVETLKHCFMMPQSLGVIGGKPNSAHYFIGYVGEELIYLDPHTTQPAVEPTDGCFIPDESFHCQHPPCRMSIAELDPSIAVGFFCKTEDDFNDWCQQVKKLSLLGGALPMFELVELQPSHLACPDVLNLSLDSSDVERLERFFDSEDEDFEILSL

ORF 73 = ORF 73 (Human herpesvirus 8, UniProt O40947); assay: inhibitors of C-LANA binding to LBS DNA, dose response, biochemical, fluorescence polarization, cherry-picked samples (AID 504725); parameters: species or system Human gammaherpesvirus 8;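 also: fluorescence polarization of a labeled DNA duplex reporting LANA DNA binding; potency is for inhibitors that block LANA binding to the DNA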
Sequence of ORF 73 (O40947 whole entry): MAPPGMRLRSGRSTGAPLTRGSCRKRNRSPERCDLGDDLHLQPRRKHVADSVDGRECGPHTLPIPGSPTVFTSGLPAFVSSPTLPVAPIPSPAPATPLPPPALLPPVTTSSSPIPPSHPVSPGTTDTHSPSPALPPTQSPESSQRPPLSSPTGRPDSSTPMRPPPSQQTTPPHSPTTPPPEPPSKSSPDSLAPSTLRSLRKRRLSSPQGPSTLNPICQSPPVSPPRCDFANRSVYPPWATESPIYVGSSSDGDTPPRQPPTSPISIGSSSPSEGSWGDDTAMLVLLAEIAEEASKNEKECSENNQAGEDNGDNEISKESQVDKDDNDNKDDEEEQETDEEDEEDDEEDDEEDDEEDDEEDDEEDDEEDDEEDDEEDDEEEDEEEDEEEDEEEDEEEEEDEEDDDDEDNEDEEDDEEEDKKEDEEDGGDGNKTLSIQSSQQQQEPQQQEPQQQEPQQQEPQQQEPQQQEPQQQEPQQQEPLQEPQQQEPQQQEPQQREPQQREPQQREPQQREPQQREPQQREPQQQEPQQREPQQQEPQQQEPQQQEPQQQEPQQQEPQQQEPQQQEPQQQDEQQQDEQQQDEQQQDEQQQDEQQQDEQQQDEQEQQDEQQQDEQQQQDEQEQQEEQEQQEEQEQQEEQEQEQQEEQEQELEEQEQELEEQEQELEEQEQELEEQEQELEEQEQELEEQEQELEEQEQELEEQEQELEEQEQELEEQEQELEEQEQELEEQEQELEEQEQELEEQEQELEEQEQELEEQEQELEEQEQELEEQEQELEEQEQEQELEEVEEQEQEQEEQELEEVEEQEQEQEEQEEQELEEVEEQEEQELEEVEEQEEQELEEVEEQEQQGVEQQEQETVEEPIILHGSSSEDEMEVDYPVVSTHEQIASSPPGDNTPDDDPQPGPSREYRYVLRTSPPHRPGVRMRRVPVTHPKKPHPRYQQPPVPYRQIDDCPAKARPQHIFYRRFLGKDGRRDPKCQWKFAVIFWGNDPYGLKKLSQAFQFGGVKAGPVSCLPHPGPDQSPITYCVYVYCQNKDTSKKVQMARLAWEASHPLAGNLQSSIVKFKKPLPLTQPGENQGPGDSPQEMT

[5] = target: T4, Dual specificity protein phosphatase 6 (Rattus norvegicus, UniProt Q64346); assay type: functional
T4 sequence (Q64346 whole entry): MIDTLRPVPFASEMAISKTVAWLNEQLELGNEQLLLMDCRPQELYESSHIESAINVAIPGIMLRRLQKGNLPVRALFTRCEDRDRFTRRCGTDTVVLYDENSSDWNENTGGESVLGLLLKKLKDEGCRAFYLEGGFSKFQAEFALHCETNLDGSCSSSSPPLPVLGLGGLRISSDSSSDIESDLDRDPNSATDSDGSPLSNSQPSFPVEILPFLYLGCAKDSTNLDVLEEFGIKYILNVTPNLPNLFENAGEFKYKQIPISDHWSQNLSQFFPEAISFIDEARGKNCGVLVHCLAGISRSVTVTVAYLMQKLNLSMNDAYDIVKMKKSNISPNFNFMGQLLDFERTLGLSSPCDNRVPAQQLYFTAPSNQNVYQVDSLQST

Vero = Vero cell cytotoxicity, cytotoxicity control for flavivirus capping enzyme inhibitors (AID 588742); assay type: functional; conditions: Chlorocebus sabaeus
Phospholipase A2 = Phospholipase A2 (Homo sapiens, UniProt P04054); assay type: functional;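 also: confirmatory dose-response counterscreen on phospholipase A2, testing hits that came from an ultra-high-throughput screen for ATG4B inhibitors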
Sequence of Phospholipase A2 (P04054 whole entry): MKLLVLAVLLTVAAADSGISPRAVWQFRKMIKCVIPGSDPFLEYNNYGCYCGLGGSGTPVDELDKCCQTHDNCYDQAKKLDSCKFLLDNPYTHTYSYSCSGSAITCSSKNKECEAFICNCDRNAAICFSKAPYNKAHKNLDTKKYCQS

[6] = target: T4, Dual specificity protein phosphatase 6
HeLa = assay: HeLa cell cytotoxicity, dose response, cytotoxicity control, 24 h, cherry-picked samples (AID 504726); assay type: functional, cell-based; conditions: Homo sapiens;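 also: potency for cytotoxicity as loss of luminescence signal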
[7] = target: Heat shock cognate 71 kDa protein (Homo sapiens, UniProt P11142); assay: In Vitro Hsc70 Dose Response Fluorescence Polarization Assay. [Related pubchem assays: 1072 ]
Sequence of Heat shock cognate 71 kDa protein (P11142 whole entry): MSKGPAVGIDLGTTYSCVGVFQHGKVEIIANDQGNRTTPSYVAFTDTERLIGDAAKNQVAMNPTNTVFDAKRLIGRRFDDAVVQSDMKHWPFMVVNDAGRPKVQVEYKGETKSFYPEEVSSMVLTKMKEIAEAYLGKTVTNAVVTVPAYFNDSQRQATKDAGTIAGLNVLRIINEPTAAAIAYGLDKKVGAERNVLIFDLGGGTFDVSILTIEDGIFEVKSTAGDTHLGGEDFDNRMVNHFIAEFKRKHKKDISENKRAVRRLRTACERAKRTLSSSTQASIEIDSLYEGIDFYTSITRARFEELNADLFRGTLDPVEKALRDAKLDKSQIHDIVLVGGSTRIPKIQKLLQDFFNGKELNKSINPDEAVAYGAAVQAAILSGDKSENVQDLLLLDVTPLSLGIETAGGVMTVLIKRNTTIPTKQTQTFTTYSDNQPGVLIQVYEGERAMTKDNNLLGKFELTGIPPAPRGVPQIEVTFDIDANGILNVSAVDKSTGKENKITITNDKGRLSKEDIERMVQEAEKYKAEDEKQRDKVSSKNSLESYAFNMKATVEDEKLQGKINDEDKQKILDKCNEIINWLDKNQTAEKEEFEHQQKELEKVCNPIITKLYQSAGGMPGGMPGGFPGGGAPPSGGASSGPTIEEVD

[8] = target: T5, Zinc finger protein mex-5 (Caenorhabditis elegans, UniProt Q9XUB2); assay: MEX-5/TCR-2 RNA interaction inhibitors, dose response, biochemical, C. elegans, fluorescence polarization (AID 1960)
T5 sequence (Q9XUB2 whole entry): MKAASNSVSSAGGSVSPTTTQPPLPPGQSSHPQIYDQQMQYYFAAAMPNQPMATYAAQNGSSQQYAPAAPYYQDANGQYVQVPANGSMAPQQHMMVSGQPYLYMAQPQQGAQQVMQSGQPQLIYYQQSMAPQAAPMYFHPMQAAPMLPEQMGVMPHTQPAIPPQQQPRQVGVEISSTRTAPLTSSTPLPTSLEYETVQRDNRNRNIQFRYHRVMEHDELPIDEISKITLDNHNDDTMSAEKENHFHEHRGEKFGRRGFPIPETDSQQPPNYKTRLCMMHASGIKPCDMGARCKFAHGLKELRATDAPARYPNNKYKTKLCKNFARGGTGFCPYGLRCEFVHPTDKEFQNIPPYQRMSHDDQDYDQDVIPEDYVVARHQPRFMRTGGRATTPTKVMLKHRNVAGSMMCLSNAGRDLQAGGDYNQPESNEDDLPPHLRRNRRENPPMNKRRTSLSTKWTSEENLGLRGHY

[9] = A small molecule screen for inhibitors of the PhoP region in Salmonella typhi (3) using purified and synthesized compounds. [Related pubchem assays (depositor defined):AID1850, AID1864, AID1985, AID2252, AID2384, AID2612, AID2811, AID449743, AID463179]; assay type: functional
[10] = target: T6, Fructose-bisphosphate aldolase (Mycobacterium tuberculosis, UniProt P9WQA3); assay: Fluorescence-based biochemical high throughput dose response assay for inhibitors of the fructose-bisphosphate aldolase (FBA) of M. tuberculosis.; assay type: functional
T6 sequence (P9WQA3 whole entry): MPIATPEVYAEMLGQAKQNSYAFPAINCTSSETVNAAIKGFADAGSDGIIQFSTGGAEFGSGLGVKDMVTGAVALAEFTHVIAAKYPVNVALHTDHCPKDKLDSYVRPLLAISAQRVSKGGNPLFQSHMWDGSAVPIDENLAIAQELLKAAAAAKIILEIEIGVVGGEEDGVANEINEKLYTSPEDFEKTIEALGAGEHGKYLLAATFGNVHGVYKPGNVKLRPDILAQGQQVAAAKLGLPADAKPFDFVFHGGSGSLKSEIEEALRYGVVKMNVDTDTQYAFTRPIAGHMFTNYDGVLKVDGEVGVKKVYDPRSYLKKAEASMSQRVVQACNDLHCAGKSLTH

[11] = target: Cyclin-dependent kinase 5/CDK5 activator 1 (Homo sapiens, UniProt Q00535); assay: CDK5/p35 kinase inhibitors, dose response, biochemical, cherry-picked samples, set 2 (AID 504545)
Sequence of Cyclin-dependent kinase 5/CDK5 activator 1 (Q00535 whole entry): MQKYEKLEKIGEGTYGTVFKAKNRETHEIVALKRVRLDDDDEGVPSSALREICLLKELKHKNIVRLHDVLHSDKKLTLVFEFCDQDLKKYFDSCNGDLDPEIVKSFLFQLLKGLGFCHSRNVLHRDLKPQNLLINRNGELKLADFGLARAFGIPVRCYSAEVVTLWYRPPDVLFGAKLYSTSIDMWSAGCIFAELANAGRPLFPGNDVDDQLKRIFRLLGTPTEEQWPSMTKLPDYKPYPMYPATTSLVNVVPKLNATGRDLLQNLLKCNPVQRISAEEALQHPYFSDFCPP
Sequence of Cyclin-dependent kinase 5/CDK5 activator 1 (Q15078 whole entry, further chain): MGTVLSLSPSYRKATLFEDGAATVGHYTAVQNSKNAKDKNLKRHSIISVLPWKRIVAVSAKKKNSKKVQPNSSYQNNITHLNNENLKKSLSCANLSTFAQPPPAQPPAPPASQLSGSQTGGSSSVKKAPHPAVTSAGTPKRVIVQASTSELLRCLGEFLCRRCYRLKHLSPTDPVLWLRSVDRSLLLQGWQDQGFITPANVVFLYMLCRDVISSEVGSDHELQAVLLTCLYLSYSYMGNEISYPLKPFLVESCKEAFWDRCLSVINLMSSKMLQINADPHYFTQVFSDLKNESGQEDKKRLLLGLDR

[12] = target: T7, Calpain-2 catalytic subunit (Sus scrofa, UniProt P43367); assay: pig calpain II inhibitor potency, dose response, biochemical, fluorogenic peptide substrate (AID 1420); assay type: functional
T7 sequence (P43367 whole entry): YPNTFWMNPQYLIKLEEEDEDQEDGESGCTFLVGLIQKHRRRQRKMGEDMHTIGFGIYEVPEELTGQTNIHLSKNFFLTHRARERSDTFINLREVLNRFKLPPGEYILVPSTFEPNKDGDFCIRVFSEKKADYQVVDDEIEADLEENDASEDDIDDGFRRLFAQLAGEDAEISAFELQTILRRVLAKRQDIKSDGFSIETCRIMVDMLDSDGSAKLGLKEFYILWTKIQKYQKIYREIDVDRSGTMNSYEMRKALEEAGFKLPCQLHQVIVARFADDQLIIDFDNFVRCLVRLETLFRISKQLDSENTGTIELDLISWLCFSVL

Hexokinase HKDC1 = Hexokinase HKDC1 (Homo sapiens, UniProt Q2TB90); assay: HKDC1 hexokinase inhibitors, dose response, biochemical, W721R variant (AID 504729); assay type: functional
Sequence of Hexokinase HKDC1 (Q2TB90 whole entry): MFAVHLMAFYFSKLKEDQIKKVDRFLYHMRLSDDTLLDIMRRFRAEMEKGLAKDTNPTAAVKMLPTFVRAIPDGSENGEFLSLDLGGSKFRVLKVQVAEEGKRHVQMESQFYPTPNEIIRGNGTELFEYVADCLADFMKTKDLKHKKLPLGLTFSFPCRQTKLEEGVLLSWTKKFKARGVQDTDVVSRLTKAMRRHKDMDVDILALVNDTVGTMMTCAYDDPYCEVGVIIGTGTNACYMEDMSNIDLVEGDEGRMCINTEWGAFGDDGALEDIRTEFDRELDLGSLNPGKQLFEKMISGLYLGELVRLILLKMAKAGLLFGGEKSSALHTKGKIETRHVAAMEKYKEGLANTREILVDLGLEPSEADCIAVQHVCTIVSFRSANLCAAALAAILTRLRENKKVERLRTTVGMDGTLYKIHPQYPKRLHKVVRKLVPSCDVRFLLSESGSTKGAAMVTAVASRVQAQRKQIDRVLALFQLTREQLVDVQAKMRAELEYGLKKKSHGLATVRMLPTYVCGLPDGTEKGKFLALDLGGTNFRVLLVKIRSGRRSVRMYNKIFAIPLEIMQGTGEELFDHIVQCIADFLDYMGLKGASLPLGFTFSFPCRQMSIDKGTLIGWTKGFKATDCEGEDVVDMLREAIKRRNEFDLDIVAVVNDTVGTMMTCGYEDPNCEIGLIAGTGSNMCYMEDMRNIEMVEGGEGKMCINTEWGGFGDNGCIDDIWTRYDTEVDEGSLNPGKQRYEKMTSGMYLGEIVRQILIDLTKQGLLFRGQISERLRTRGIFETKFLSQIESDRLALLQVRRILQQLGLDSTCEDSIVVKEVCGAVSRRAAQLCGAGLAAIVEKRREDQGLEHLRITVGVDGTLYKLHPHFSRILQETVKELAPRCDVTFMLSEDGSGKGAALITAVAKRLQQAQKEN

O=C(O)C1Nc2ccc(Br)cc2C2C=CCC12 (stereo not drawn)
EC50 [1]: 9.81 µM (active) | IC50 [2]: 28.7 µM (active) | IC50 [3]: 1.63 µM (active) | IC50 [4]: 3.24 µM (active) | IC50 (Cysteine protease ATG4B): 3.94 µM (active) | AC50 (ORF 73): 29.2 µM (active) | IC50 [5]: 12.3 µM (active) | CC50 (Vero): > 40 µM (active) | IC50 (Phospholipase A2): 8.24 µM (active) | IC50 [6]: 12.8 µM (active) | AC50 (HeLa): 106 µM (active) | IC50 [7]: > 100 µM (not active) | EC50 [8]: 6.32 µM (active)

Cc1cccc(NC(=O)N2CCCN(Cc3ccccc3F)C2)c1
IC50 [9]: > 150 µM (active)

CNS(=O)(=O)c1ccc2c3c(cccc13)C(=O)N2
IC50 [10]: 1.6 µM (active) | AC50 [11]: 32.6 µM (active)

Cc1cc(C)n2nc(SCc3nnc(SCc4ccccc4Cl)s3)nc2n1
IC50 [12]: 9.87 µM (not active) | IC50 (Hexokinase HKDC1): 18.8 µM (active)
